Reference: patent publication US20110008433A1, “Herbal Composition for Osteoarthritis” (priority 2009, published 2011)
Several values for one entry are separate records, joined by “and”; a condition that tells them apart may be missing. Equal entries are not always repeated.

Assays:
[1] = Free radical scavenger, SOD mimetic activity (xanthine/xanthine oxidase, NBT); assay type: biochemical
Experimental: SO101C or vehicle was incubated with 0.12 mM xanthine, 6 mU xanthine oxidase, 27 μM nitroblue tetrazolium (NBT), 0.11 mM EDTA, 0.005% bovine serum albumin and Na2CO3 at pH 10.5 at 25° C. for 20 minutes. Conversion of xanthine to uric acid +O^−+NBT to formazan was then determined by measurement of absorbance at 595 nm and percent inhibition by superoxide dismutase or test compound was calculated.

[2] = 2,2-diphenyl-1-picrylhydrazyl (DPPH) radical scavenging activity; conditions: for Absorbance at 517 nm, Sample 1 to 3: 30 minutes, single samples; for Absorbance at 517 nm, Average: control 0.963
Experimental: SO101C, vitamin C or vitamin E at various concentrations were incubated with 0.4 mM 2,2-diphenyl-1-picrylhydrazyl (DPPH, Sigma) in ethanol at room temperature for 30 minutes. Absorbance at 517 nm was measured by a spectrophotometer.

MMP-2 [3] = target: T1, MMP-2 (Homo sapiens, UniProt P08253); assay: Inhibition of MMP-2 activity in cell free system, gelatin zymography; assay type: biochemical; conditions: for MMP-2 activity (% of control): 24 hours
T1 construct: Serum free culture supernatant of confluent human dermal fibroblast was used as the source of MMP; endogenous in cells; host or cells: human dermal fibroblasts, serum-free culture supernatant
T1 sequence (P08253 110-660): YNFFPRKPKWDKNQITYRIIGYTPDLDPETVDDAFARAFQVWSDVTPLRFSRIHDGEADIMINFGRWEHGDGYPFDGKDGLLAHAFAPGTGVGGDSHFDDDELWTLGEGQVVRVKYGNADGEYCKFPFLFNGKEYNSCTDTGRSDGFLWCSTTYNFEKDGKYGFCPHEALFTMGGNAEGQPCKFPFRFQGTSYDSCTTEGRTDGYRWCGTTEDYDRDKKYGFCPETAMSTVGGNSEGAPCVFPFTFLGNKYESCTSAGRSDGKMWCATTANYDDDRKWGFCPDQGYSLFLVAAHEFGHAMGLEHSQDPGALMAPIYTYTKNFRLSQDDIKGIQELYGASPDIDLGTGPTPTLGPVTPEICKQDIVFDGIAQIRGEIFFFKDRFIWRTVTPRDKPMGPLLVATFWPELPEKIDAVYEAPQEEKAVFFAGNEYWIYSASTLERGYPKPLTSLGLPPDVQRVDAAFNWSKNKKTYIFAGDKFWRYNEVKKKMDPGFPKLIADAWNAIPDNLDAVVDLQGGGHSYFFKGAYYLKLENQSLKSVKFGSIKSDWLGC
Experimental: Serum free culture supernatant of confluent human dermal fibroblast was used as the source of MMP. Equal amount of the supernatant treated with equal volume of 2 fold concentration of SDS sample buffer without reducing agent was subjected to electrophoresis The samples were loaded into each well of a 10% SDS polyacrylamide gel containing 1 mg/ml of bovine gelatin (Sigma), and run at 20 mA in ice bath by a BioRad Mini Protean gel apparatus. After dye front reached the bottom of the gel, the gel was washed three times, 15 minutes each, with 2.5% Triton X-100. Then, the gel was sliced and incubated in developing buffer (50 mM Tris-HCl, pH7.6, 10 mM CaCl2, 50 mM NaCl, 0.05% Brij35) containing SO101C or EDTA or vehicle at 37° C. for 24 hours. The gel was stained with 0.1% Coomassie blue R250 (Sigma) in 40% methanol and 10% acetic acid, and destained in 30% methanol and 7% acetic acid. The enzyme digested clear bands were visualized in the blue background. The comparison of the enzymatic activities (clear band width) was analyzed by Image J (NIH).

chondrocytes = assay: ALP, collagen and GAGs synthesis in chondrocytes in micromass culture (staining), without or with H2O2; assay type: cell-based, Human; conditions: 1 mM; same experimental conditions
Experimental: Human articular cartilage was obtained from patients who received total joint replacement with consent. The cartilage was digested with 1 mg/ml of Class 2 and Class 4 bacterial collagenase (Worthington Chemical, Freehold, N.J.) in DMEM containing 10% fetal calf serum (FCS) and 25 μg/ml Gentamicin (C-DMEM, Gibco, Grand Island, […]) at 37° C. overnight. […] Ten μl of 1×10^7 cells/ml in C-DMEM was seeded into the center of each well of 48 multiwell culture dish (Nunc, Roskilde, Danmark). […] The media were changed twice a week for two weeks. At the end of the incubation, the media were changed with fresh DMEM. Twenty-four hours later, the media were collected for MMP zymography study and cells were fixed and stained for alkaline phosphatase (ALP), collagen or glycosaminoglycan using Naphthol AS-MX phosphate/Fast red, Sirius red, or Safranin O (Sigma), respectively.

[4] = test system: Human bone marrow mesenchymal stem cells; assay: ALP, collagen and GAGs synthesis in bone marrow mesenchymal stem cells in micromass culture (staining); assay type: cell-based; conditions: 1 mM; same experimental conditions
Experimental: Human bone marrow mesenchymal stem cells were obtained from patients receiving total joint replacement with consent. […] Ten μl of 1×10^7 cells/ml in C-DMEM was seeded into the center of each well of 48 multiwell culture dish (Nunc, Roskilde, Danmark). […] The media were changed twice a week for two weeks. At the end of the incubation, cells were fixed and stained for alkaline phosphatase (ALP), collagen or glycosaminoglycan using Naphthol AS-MX phosphate/Fast red, Sirius red, or Safranin O (Sigma), respectively.

MMP-2 [5] = assay: MMP-2 activities of treated chondrocyte culture supernatants, gelatin zymography; assay type: cell-based, Human; conditions: 1 mM; chondrocytes treated 2 weeks
Experimental: Ten μl of 1×10^7 cells/ml in C-DMEM was seeded into the center of each well of 48 multiwell culture dish (Nunc, Roskilde, Danmark). Two hours later, 250 μl of F12/DMEM containing 5% FCS, 6.25 μg/ml bovine insulin, 25 μg/ml ascorbic acid and 100 nM Dexamethasone (induction medium) with various concentrations of herbal composition or glucosamine (Sigma) was added. The media were changed twice a week for two weeks. At the end of the incubation, the media were changed with fresh DMEM.
Equal amount of protein of each culture medium was mixed with equal volume of 2 fold concentration of non-reducing SDS sample buffer, and incubated at room temperature for two hours for sample to denature. The samples were loaded into each well of a 10% SDS polyacrylamide gel containing 1 mg/ml of bovine gelatin (Sigma), and run at 20 mA in ice bath by a BioRad Mini Protean gel apparatus. After dye front reached the bottom of the gel, the gel was washed three times, 15 minutes each, with 2.5% Triton X-100. Then, the gel was renatured in developing buffer (50 mM Tris-HCl, pH7.6, 10 mM CaCl2, 50 mM NaCl, 0.05% Brij35) at 37° C. for 24 hours. The gel was stained with 0.1% Coomassie blue R250 (Sigma) in 40% methanol and 10% acetic acid, and destained in 30% methanol and 7% acetic acid. […] The comparison of the enzymatic activities (clear band width) was analyzed by Image J (NIH).

human chondrocytes = assay: Gene expression of chondrocytes (RT-PCR, normalized by β-Actin); assay type: cell-based; conditions: 2 weeks
Experimental: Reverse transcription was carried out at 37° C. for one hour by a programmable thermal controller (PTC-100, MJ Research, Inc., Watertown, Mass.). Reaction was terminated by raising the temperature to 93° C. for five minutes. PCR was performed in a thermal controller (PTC-100, MJ Research, Inc., Watertown, Mass.) with master mix (HotStarTaq DNA polymerase, Qiagen) at initial denaturation at 95° C. for 15 minutes, followed by 25 cycles of 94° C. for 1 minute, 58° C. for 40 seconds, and 72° C. for 40 seconds. The final cycle extended 72° C. for 10 minutes. The PCR products accompanied by 100 bp ET marker were separated by 1.2% agarose gel, stained with ethidium bromide and visualized under UV light. A Polaroid picture was taken by Foto/Phoresis UV documentation system (Fotodyne Inc.). Beta-actin expression under the same experimental conditions was used as a reference to normalize the expressions. The comparison of bend width of PCR was analyzed by Image J (NIH) after normalized by the expression of β-Actin.

[6] = Anti-lipid peroxidation activity (malondialdehyde/thiobarbituric acid); assay type: biochemical, Mouse; conditions: for OD (A532-A600): control (0) 0.973
Experimental: Mouse brain KCl extract was used as the source of lipid. Brain extract was incubated with 1 mM FeSO4 and 0.1 mM vitamin C at 37° C. for 90 minutes. The malondialdehyde formed by peroxyl radical was reacted with thiobarbituric acid to form an adduct that absorbed at 532 nm after centrifugation to discard TCA precipitation.

[7] = target: T2, MMP-3 (stromelysin-1, human recombinant catalytic domain) (Homo sapiens, UniProt P08254); assay: Inhibition of MMP-3 enzyme activity, fluorogenic substrate; assay type: biochemical
T2 construct: MMP-3 (stromelysin-1, human recombinant catalytic domain from Calbiochem Cat. 444217); purchased Calbiochem 444217
Experimental: (§1) MMP-3 (stromelysin-1, human recombinant catalytic domain from Calbiochem Cat. 444217) was activated by p-aminophenylmercuric acetate for 60 minutes at 37° C. After preincubation of SO101C or vehicle with the activated enzyme (5 nM) in a reaction mixture containing 50 mM MOPS (pH 7.2), 10 mM CaCl2 and 10 μM ZnCl2 at 37° C. for 60 minutes, the reaction was initiated by addition of 4 μM (7-methoxycoumarin-4-yl)acetyl-Pro-Leu-Gly-Leu-N-3-(2,4-dinitrophenyl)-L-2,3-diaminopropinoyl-Ala-Arg-NH2 and incubated for a further 120 minutes at 37° C. Enzyme activity was determined spectrofluorometrically by measuring the formation of fluorescent (7-methoxycoumarin-4-yl)acetyl-Pro-Leu-Gly.

[8] = target: T3, MMP-13 (human recombinant) (Homo sapiens, UniProt P45452); assay: Inhibition of MMP-13 enzyme activity, fluorogenic substrate; assay type: biochemical
T3 construct: purchased Calbiochem 444248; host or cells: Sf9
Experimental: as §1, with “MMP-13 proenzyme (human recombinant, expressed in Sf9 cell,” for “MMP-3 (stromelysin-1, human recombinant catalytic domain from”, “444248)” for “444217)”, “with the activated enzyme (0.5” for “(5”, “ZnCl2 for 60 minutes” for “ZnCl2”, “C.,” for “C. for 60 minutes,”

T2 sequence (P08254 100-272 limits assumed): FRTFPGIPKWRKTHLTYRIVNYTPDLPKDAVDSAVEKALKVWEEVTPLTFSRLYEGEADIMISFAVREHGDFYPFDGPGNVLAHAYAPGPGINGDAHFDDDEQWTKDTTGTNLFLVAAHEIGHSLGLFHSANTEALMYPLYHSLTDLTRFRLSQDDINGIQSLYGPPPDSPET

## O=C(O[C@@H]1Cc2c(O)cc(O)cc2O[C@@H]1c1ccc(O)c(O)c1)c1cc(O)c(O)c(O)c1 [(−)-Epicatechin gallate]
[1]; 6.1 μM
  Inhibition (%): 50%
[1]; read-out: Concentration giving 50 % inhibition (SOD mimetic assay)
  IC50: 6100 nM

## O=C1O[C@H]([C@@H](O)CO)C(O)=C1O [Vitamin C, vitamin C]
[2]; 0.01 mM
  Inhibition (%): 19.5%
  Absorbance at 517 nm, Sample 1 to 3: 0.753 and 0.790 and 0.781
  Absorbance at 517 nm, Average: 0.775
[2]; 0.03 mM
  Inhibition (%): 64.8%
  Absorbance at 517 nm, Sample 1 to 3: 0.321 and 0.362 and 0.333
  Absorbance at 517 nm, Average: 0.339
[2]; 0.1 mM
  Inhibition (%): 92.5%
  Absorbance at 517 nm, Sample 1 to 3: 0.068 and 0.079
  Absorbance at 517 nm, Average: 0.072

## O=C(O)CN(CCN(CC(=O)O)CC(=O)O)CC(=O)O [EDTA]
MMP-2 [3]
  inhibition of MMP-2 activity in cell free system (in words): showed dose dependent inhibition
MMP-2 [3]; 0.1 mM
  MMP-2 activity (% of control): 46.6 % of control
MMP-2 [3]; 0.3 mM
  MMP-2 activity (% of control): 30.5 % of control

## N[C@H]1C(O)O[C@H](CO)[C@@H](O)[C@@H]1O (stereo partly drawn) [Glucosamine, glucosamine]
chondrocytes
  effects on ALP, collagen and GAGs in chondrocytes (in words): did not show significant effects
[4]
  effect on ALP, collagen and GAGs in bone marrow mesenchymal stem cells (in words): did not show significant effect
MMP-2 [5]
  MMP-2 activity (% of control) Active form (66K): 118.2 % of control
  MMP-2 activity (% of control) Latent form (72K): 92.5 % of control
Human chondrocytes; 1 mM
  Gene expression (% of control) ALP: 180.0 % of control
  Gene expression (% of control) Aggrecan: 133.7 % of control
  Gene expression (% of control) Aggrecanase: 130.9 % of control
  Gene expression (% of control) BMP-2: 173.4 % of control
  Gene expression (% of control) Col II: 162.4 % of control
  Gene expression (% of control) TGF-β: 120.9 % of control
Human chondrocytes; SO101C 0.01 mg/ml or glucosamine 1 mM
  expression of cartilage metabolism related genes (in words): stimulated the expression of most of the cartilage metabolism related genes

## vitamin E
[2]; 0.01 mM
  Inhibition (%): 30.6%
  Absorbance at 517 nm, Sample 1 to 3: 0.647 and 0.688 and 0.668
  Absorbance at 517 nm, Average: 0.668
[2]; 0.03 mM
  Inhibition (%): 76.9%
  Absorbance at 517 nm, Sample 1 to 3: 0.213 and 0.208 and 0.245
  Absorbance at 517 nm, Average: 0.222
[2]; 0.1 mM
  Inhibition (%): 77.5%
  Absorbance at 517 nm, Sample 1 to 3: 0.204 and 0.241 and 0.205
  Absorbance at 517 nm, Average: 0.217
[6]
  inhibition of lipid peroxidation (in words): dose dependently inhibited lipid peroxidation
[6]; 0.003 mM
  OD (A532-A600): 0.844
[6]; 0.01 mM
  OD (A532-A600): 0.697
[6]; 0.03 mM
  OD (A532-A600): 0.526

## TIMP-1: reference agent in the MMP-3 and MMP-13 inhibition tables
[7]; 0.0076 μM
  Inhibition (%): 50%
[7]; read-out: Concentration giving 50 % inhibition of MMP-3
  IC50: 7.6 nM
[8]; 0.0068 μM
  Inhibition (%): 50%
[8]; read-out: Concentration giving 50 % inhibition of MMP-13
  IC50: 6.8 nM
